Paper PMC5078989, “Targeted inhibition of the COP9 signalosome for treatment of cancer” (Nature Communications, 2016)

Test system: panel of cancer cell lines
Assay: Cell viability (CellTiter-Glo) dose-response across cancer cell line panel;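 for EC50: after 72 h compound incubation with CellTiter-Glo ATP readout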
Assay type: cell-based, human
Conditions: for EC50: Homo sapiens
From the text: Next, we explored the effect of CSN5 inhibition on the viability of cancer cells. To obtain a comprehensive picture, we generated dose–response curves with a CSN5 inhibitor across more than 500 cancer cell lines in a previously described standardized setting[47] (Supplementary Data 1).
A standardized CellTiter-Glo Assay (Promega #G7570) based on the quantification of ATP was applied according to the manufacturer's protocol to measure the amount of viable cells in culture. In brief, cells were seeded into 384-well plates at optimal density for each cell line. After 4 h, compounds were added at different concentrations in growth medium and incubated for another 72 h in a humidifying chamber at 37 °C and 5% CO2. […] EC50 values were calculated from the plot of percentage of inhibition versus inhibitor concentration using the nonlinear regression analysis software Origin 7.5SR6 (OriginLab Corp.).

In the case of COCc1ccccc1NCc1ccc([C@@H]2[C@H](O)CCCc3cncn32)c(-c2ccccc2Cl)c1 [CSN5i-2e, (5R,6R)-5-(2′-chloro-5-(((2-(methoxymethyl)phenyl)amino)methyl)-[1,1′-biphenyl]-2-yl)-6,7,8,9-tetrahydro-5H-imidazo[1,5-a]azepin-6-ol], the AMAX (59M cells) is reported as -44.1889, the AMAX (92.1 cells) is reported as -96.1867 and the AMAX (A101D cells) is reported as -85.3496. The AMAX (A2780 cells) was -96.2609, the AMAX (A-704 cells) was -60.7987 and the AMAX (ABC-1 cells) was -95.9302. For the same compound, the AMAX (AM-38 cells) was -94.7284, the AMAX (AsPC-1 cells) was -87.4169 and the AMAX (BFTC-909 cells) was -56.5002. For the same compound, the AMAX (BICR 6 cells) was -77.6622, the AMAX (BICR 16 cells) was -89.8558 and the AMAX (Calu-6 cells) was -67.9674. It also gave an AMAX (DU4475 cells) of -97.6355, an AMAX (EFM-192A cells) of -84.5576 and an AMAX (FaDu cells) of -85.1498. For the same compound, the AMAX (GP2d cells) was -5.479, the AMAX (HARA cells) was -90.816 and the AMAX (HCC1143 cells) was -51.336. The AMAX (HCC1187 cells) was -85.4618, the AMAX (HD-MY-Z cells) was -75.4546 and the AMAX (HEC-151 cells) was -93.7534. For the same compound, the AMAX (HEL cells) was -96.2302, the AMAX (HL-60 cells) was -99.3648 and the AMAX (HLC-1 cells) was -73.0832. For the same compound, the AMAX (HLE cells) was -72.0117, the AMAX (HLF cells) was -45.3286 and the AMAX (HSC-4 cells) was -74.8911. It also gave an AMAX (HT-29 cells) of -73.0471, an AMAX (HUP-T4 cells) of -52.1939 and an AMAX (Hep3B cells) of -93.3733. The EC50 (59M, 59M cells) was > 30 µM, the EC50 (92.1 cells) was 14.4 µM and the EC50 (639-V, 639-V cells) was 23 µM. It also gave an EC50 (697 cells) of 9.5 µM, an EC50 (769-P, 769-P cells) of 12.8 µM and an EC50 (786-0, 786-O cells) of 6.26 µM. For the same compound, the EC50 (1321-N1, 1321N1 cells) was 12.9 µM, the EC50 (8505C, 8505C cells) was 8.9 µM and the EC50 (A4/Fuk cells) was 14.5 µM. It also gave an EC50 (A101D, A101D cells) of 9.82 µM, an EC50 (A204, A-204 cells) of 15.2 µM and an EC50 (A498, A-498 cells) of 13.7 µM. For the same compound, the EC50 (A549, A549 cells) was 10.6 µM, the EC50 (A673, A-673 cells) was 14.4 µM and the EC50 (A2058, A2058 cells) was 23.5 µM. For the same compound, the EC50 (A2780, A2780 cells) was 8.53 µM, the EC50 (A-375, A-375 cells) was 10.4 µM and the EC50 (ABC-1, ABC-1 cells) was 3.6 µM. For the same compound, the EC50 (ACC-MESO-1, ACC-MESO-1 cells) was > 30 µM, the EC50 (AM-38, AM-38 cells) was 11.9 µM and the EC50 (AML-193 cells) was 18.9 µM. The EC50 (AN3-CA, AN3 CA cells) was > 30 µM, the EC50 (ASPC1, AsPC-1 cells) was 13.4 µM and the EC50 (BC-3C cells) was 8.14 µM. The EC50 (BEN cells) was 10.5 µM, the EC50 (BFTC-909, BFTC-909 cells) was 13.2 µM and the EC50 (BHY cells) was 12.8 µM. For the same compound, the EC50 (BICR 6 cells) was 9.82 µM, the EC50 (BICR 16 cells) was 11.1 µM and the EC50 (BICR 18 cells) was > 30 µM. The EC50 (BICR 31 cells) was 19.6 µM, the EC50 (BT-16, BT-16 cells) was 18.3 µM and the EC50 (BT-474, BT-474 cells) was 11.4 µM. For the same compound, the EC50 (BT-549, BT-549 cells) was 19.4 µM, the EC50 (C3A, C3A cells) was 9.64 µM and the EC50 (CAKI-2, Caki-2 cells) was 11.3 µM. For the same compound, the EC50 (CAL-12T, CAL-12T cells) was 8.27 µM, the EC50 (CAL-27, CAL 27 cells) was 12 µM and the EC50 (CAL-29 cells) was 11.8 µM. The EC50 (CAL-85-1, CAL-85-1 cells) was 18.6 µM, the EC50 (CAL-120, CAL-120 cells) was 9.09 µM and the EC50 (CAL-148, CAL-148 cells) was 9.65 µM. It also gave an EC50 (CAMA-1, CAMA-1 cells) of 10.9 µM, an EC50 (CAPAN-1, Capan-1 cells) of 7.41 µM and an EC50 (CCRF-HSB-2, CCRF-HSB-2 cells) of 4.36 µM. The EC50 (CEM/C1, CEMC1 cells) was 6.88 µM, the EC50 (CFPAC-1, CFPAC-1 cells) was 11.4 µM and the EC50 (CL-14 cells) was 11.1 µM. For the same compound, the EC50 (CL-34 cells) was 11.1 µM, the EC50 (CMK, CMK cells) was 8.18 µM and the EC50 (CMK-86, CMK-86 cells) was 7.36 µM. It also gave an EC50 (COLO 201, COLO 201 cells) of 12.6 µM, an EC50 (COLO 205, COLO 205 cells) of 11.6 µM and an EC50 (COLO 320, COLO-320 cells) of 8.29 µM. It also gave an EC50 (COLO 699, COLO-699 cells) of 10.1 µM, an EC50 (COLO 704, COLO-704 cells) of 12.6 µM and an EC50 (COLO-678, COLO-678 cells) of 16.6 µM. For the same compound, the EC50 (COLO-679, COLO-679 cells) was 13.6 µM, the EC50 (COLO-741, COLO 741 cells) was 27.1 µM and the EC50 (COLO-829, COLO 829 cells) was 11.6 µM. For the same compound, the EC50 (COR-L23, COR-L23 cells) was 8.42 µM, the EC50 (COR-L105, COR-L105 cells) was 13.1 µM and the EC50 (COV362, COV362 cells) was 10.6 µM. The EC50 (CW-2, CW-2 cells) was 9.62 µM, the EC50 (Calu-6, Calu-6 cells) was 9.62 µM and the EC50 (ChaGo-K-1, ChaGo-K-1 cells) was 12.7 µM. For the same compound, the EC50 (Ci-1, CI-1 cells) was 2.87 µM, the EC50 (DB, DB cells) was 8.52 µM and the EC50 (DLD-1, DLD-1 cells) was > 30 µM. The EC50 (DMS-53, DMS 53 cells) was 17.9 µM, the EC50 (DMS-273, DMS 273 cells) was 9.95 µM and the EC50 (DND41, DND-41 cells) was 12.6 µM. It also gave an EC50 (DU-4475, DU4475 cells) of 14.8 µM, an EC50 (EBC-1, EBC-1 cells) of 17.8 µM and an EC50 (EFM-19, EFM-19 cells) of 13.1 µM. For the same compound, the EC50 (EFM-192A, EFM-192A cells) was 6.13 µM, the EC50 (EOL1, EOL-1 cells) was 3.43 µM and the EC50 (FaDu, FaDu cells) was 10.2 µM. The EC50 (Fu97, FU97 cells) was 8.56 µM, the EC50 (G-401, G-401 cells) was 7.91 µM and the EC50 (G-402, G-402 cells) was 11.3 µM. For the same compound, the EC50 (GAMG, GAMG cells) was > 30 µM, the EC50 (GDM-1, GDM-1 cells) was 9.32 µM and the EC50 (GI-1, GI-1 cells) was 15.6 µM. For the same compound, the EC50 (GP2d, GP2d cells) was > 30 µM, the EC50 (HARA cells) was 14.2 µM and the EC50 (HCC15, HCC-15 cells) was 23 µM. It also gave an EC50 (HCC44, HCC-44 cells) of 5.76 µM, an EC50 (HCC70, HCC70 cells) of 13.3 µM and an EC50 (HCC95, HCC-95 cells) of 15 µM. The EC50 (HCC827, HCC827 cells) was 15.5 µM, the EC50 (HCC1143, HCC1143 cells) was 11.1 µM and the EC50 (HCC1187, HCC1187 cells) was 10.7 µM. It also gave an EC50 (HCC1500, HCC1500 cells) of 11.7 µM, an EC50 (HCC1588, HCC-1588 cells) of 7.61 µM and an EC50 (HCC1806, HCC1806 cells) of 22.7 µM. For the same compound, the EC50 (HCC1954, HCC1954 cells) was 15.3 µM and the EC50 (HCC-56 cells) was 18.5 µM.
